Structures can show the parent of a compound that is named as a salt.
Experiments:
[1] = biological target: T1, ALK2 (GST-modified kinase domain ACVR1(145-509)) (Homo sapiens, UniProt Q04771); assay: ALK2 kinase inhibition assay (33P-ATP filter binding, Reaction Biology); assay type: biochemical; details: casein substrate, 20 μM ATP (Km ATP), 120 min ambient temperature
T1 construct: N-terminally GST-modified kinase domain ACVR1(145-509); GST (N)
T1 sequence (Q04771 145-509): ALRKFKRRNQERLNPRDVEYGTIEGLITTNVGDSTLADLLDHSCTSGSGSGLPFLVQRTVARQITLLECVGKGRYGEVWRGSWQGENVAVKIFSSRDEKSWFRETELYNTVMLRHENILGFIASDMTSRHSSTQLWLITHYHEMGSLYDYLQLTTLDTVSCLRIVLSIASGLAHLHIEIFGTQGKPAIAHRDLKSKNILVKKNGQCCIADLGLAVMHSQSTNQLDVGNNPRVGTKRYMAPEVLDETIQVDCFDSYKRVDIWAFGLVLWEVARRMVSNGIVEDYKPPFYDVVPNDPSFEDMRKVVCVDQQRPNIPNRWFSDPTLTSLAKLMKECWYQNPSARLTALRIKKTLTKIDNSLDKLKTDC
How it was run: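 Human ACVR1(145-509) kinase domain, N-terminal GST-tagged, with 1 mg/ml casein substrate and 33P-ATP in 20 mM HEPES pH 7.5, 10 mM MgCl2, 1 mM EGTA, 2 mM DTT, 1% DMSO. Incubated 120 min at ambient temperature, then spotted on P81 filters and washed. Background-subtracted activity taken as % of DMSO control; IC50 from curve fit.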

[2] = test system: ALK1-mediated SMAD1/5 phosphorylation in HUVEC cells; assay: Cell-based immunofluorescence assay for ALK1-mediated SMAD1/5 phosphorylation in HUVEC cells; details: Homo sapiens, 1.5 ng/ml BMP-9 with compound for 2 h, % nuclei with pSMAD1/5 signal, read-out: Smad 1/5 IC50
From the text: In vitro cell-based Immunofluorescence-Assay for identification of inhibitors of ALK1-mediated SMAD1/5 phosphorylation in HUVEC cells:
ALK1 is a type I cell-surface receptor for the TGF-β superfamily of ligands. In adults ALK1 is mainly expressed on activated endothelial cells, e.g. during wound healing or in tumor angiogenesis. BMP9 and BMP10 are high affinity ligands for ALK1.
BMP9 and BMP10 binding leads to the phosphorylation of so-called Smad1 at Ser463 and Ser465 in the carboxy-terminal motif SSXS, as well as Smad5 and Smad8 at their corresponding sites. These phosphorylated Smads dimerize with the coactivating Smad4 and translocate to the nucleus, where they stimulate transcription of target genes.
Primary endothelial cells (HUVEC: Human Umbilical Vein Endothelial Cells; supplier Promocell) are cultivated in the culture medium obtained from Promocell (with supplements corresponding to 5% FCS) for maximum 5 passages, seeded into black 384-well culture plates with clear bottom (3000 cells/well/30 μl), and incubated for 16-24 hours at 37° C., 5% CO2 and 90% rH.
The following day cells were serum-starved for 2-3 h in order to stop TGF-ß-mediated signalling derived from ligands present in FBS. 1.5 ng/ml BMP-9 was than added in parallel with test compounds for 2 h at 37° C., 5% CO2 in order to identify compounds which block functional activity of ALK1 leading to phosphorylation and nuclear translocation of SMAD1/5/8.
After fixation (15 min 4% Formaldehyd in PBS) and permeabilization (10 min 0.2% Triton X-100 in PBS) an indirect immunocytochemical staining is performed with a specific Phospho-Smad1/5 (Ser463/465) antibody (Cell Signaling #9516) and Alexa488-labelled secondary anti-rabbit-IgG-antibody. DNA staining with Propidium Iodide allowed parallel cell counting. Image acquisition and analysis was performed on an MDS ImageXpress Ultra confocal High Content Reader using the image analysis software MetaXpress. Final read-out were % nuclei with a pSMAD1/5 signal above a defined background.
The final DMSO concentration in the assay was 0.5%. DMSO-treated HUVEC cells served as neutral control (=0%) and cells treated with 10 μM of a reference inhibitor described in a patent served as inhibitor control (=−100%). Raw data were normalised to the neutral and inhibitory references. The assay was performed as dose response (10 compound dilutions, 1 nM-30 μM).

[3] = biological target: T2, ALK5 (TGFβR1; GST-modified TGFBR1 (200-503)) (Homo sapiens, UniProt P36897); assay: ALK5 kinase inhibition assay (33P-ATP filter binding, Reaction Biology); assay type: biochemical; details: casein substrate, 200 μM ATP
T2 construct: Using GST-Modified TGFBR1 (200-503); GST
T2 sequence (P36897 200-503): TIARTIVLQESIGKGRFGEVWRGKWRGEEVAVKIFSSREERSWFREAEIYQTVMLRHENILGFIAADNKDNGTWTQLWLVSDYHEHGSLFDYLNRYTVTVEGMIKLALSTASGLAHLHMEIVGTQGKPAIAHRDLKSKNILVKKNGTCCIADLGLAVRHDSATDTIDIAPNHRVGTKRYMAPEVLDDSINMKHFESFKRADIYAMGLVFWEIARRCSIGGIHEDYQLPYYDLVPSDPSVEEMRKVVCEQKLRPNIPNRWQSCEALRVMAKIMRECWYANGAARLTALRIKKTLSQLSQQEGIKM
Description: The protein sequences of the kinases targeted and accompanying information are described in publically available data base http://www.uniprot.org/uniprot/for ALK1 www.uniprot.org/uniprot/P37023, for ALK2 www.uniprot.org/uniprot/Q04771 and for ALK5 www.uniprot.org/uniprot/P36897. IC50 determination of the novel inhibitors described was performed at Reaction Biology Corp., Malvern, Pa., USA, with assay conditions open to public at www.reactionbiology.com/webapps/site/KinaseDetail.aspx?page=Kinases&id=1, and www.reactionbiology.com/webapps/site/Kinase Assay Protocol.aspx. In addition, they were specified previously in Anastassiadis et al. Nat. Biotechnol. 29(11): 1039-1045. doi:10.1038/nbt.2017.
A3) ALK5 Kinase Inhibition Assay Was Performed Similar to Procedures A1 and A2 Using GST-Modified TGFBR1 (200-503) and 1 mg/ml Casein as Substrate at 200 μM ATP.

[4] = biological target: T3, ALK1 (GST-modified kinase domain ACVRL1 (139-503)) (Homo sapiens, UniProt P37023); assay: ALK1 kinase inhibition assay (33P-ATP filter binding, Reaction Biology); assay type: biochemical; details: casein substrate, 100 μM ATP (Km ATP), 120 min ambient temperature
T3 construct: N-terminally GST-modified kinase domain ACVRL1 (139-503); GST (N)
T3 sequence (P37023 139-503): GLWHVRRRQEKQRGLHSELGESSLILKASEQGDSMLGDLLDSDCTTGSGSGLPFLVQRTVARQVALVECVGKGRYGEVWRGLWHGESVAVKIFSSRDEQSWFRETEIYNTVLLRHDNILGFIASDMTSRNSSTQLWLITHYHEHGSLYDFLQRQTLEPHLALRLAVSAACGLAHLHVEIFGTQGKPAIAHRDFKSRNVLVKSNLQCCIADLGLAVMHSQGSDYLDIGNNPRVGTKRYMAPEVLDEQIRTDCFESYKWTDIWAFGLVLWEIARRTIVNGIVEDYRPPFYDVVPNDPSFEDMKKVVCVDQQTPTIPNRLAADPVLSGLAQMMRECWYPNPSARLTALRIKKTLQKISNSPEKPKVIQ
How it was run: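 GST-tagged kinase domain with 20 mg/ml casein substrate in 20 mM HEPES pH 7.5, 10 mM MgCl2, 1 mM EGTA, 2 mM DTT, 1% DMSO; 120 min at ambient temperature. Phosphorylation read by P81 filter binding; background-subtracted activity as percent of DMSO vehicle, curve-fit for IC50.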

IC50 [1]	IC50 [3]	IC50 [4]	Structure (SMILES)	IC50 [2]
57 nM	4100 nM	28 nM	O=c1[nH]cc(-c2cccc(CO)c2)cc1-c1nc2cc(N3CCC(O)CC3)ccc2[nH]1 [Compound A12, 5-(3-Hydroxymethyl-phenyl)-3-[5-(4-hydroxy-piperidin-1-yl)-1H-benzimidazol-2-yl]-1H-pyridin-2-one]	7200 nM
94 nM	3600 nM	39 nM	O=c1[nH]cc(-c2cccc(CO)c2)cc1-c1nc2cc(N3CCOCC3)ccc2[nH]1 [Compound A1, 5-(3-Hydroxymethyl-phenyl)-3-(5-morpholin-4-yl-1H-benzimidazol-2-yl)-1H-pyridin-2-one]	1300 nM
20 nM	4800 nM	30 nM	CN1CCN(c2ccc3[nH]c(-c4cc(-c5ccc(F)c(CO)c5)c[nH]c4=O)nc3c2)CC1 [Compound A34, 5-(4-Fluoro-3-hydroxymethyl-phenyl)-3-[5-(4-methyl-piperazin-1-yl)-1H-benzimidazol-2-yl]-1H-pyridin-2-one]	2000 nM
16 nM	2100 nM	3.5 nM	O=c1[nH]cc(-c2cc(CO)ccc2Cl)cc1-c1nc2cc(N3CCNCC3)ccc2[nH]1 [Compound A22, 5-(2-Chloro-5-hydroxymethyl-phenyl)-3-(5-piperazin-1-yl-1H-benzimidazol-2-yl)-1H-pyridin-2-one dihydrochloride]	3300 nM
6 nM	140 nM	4 nM	O=c1[nH]cc(-c2ccnc3[nH]ccc23)cc1-c1nc2cc(N3CCNCC3)ccc2[nH]1 [Compound A44, 3-(5-Piperazin-1-yl-1H-benzimidazol-2-yl)-5-(1H-pyrrolo[2,3-b]pyridin-4-yl)-1H-pyridin-2-one dihydrochloride]	10000 nM
11 nM	3200 nM	16 nM	CN1CCN(c2ccc3[nH]c(-c4cc(-c5ccc(CO)cc5)c[nH]c4=O)nc3c2)CC1 [Compound A35, 5-(4-Hydroxymethyl-phenyl)-3-[5-(4-methyl-piperazin-1-yl)-1H-benzimidazol-2-yl]-1H-pyridin-2-one]	720 nM
1 nM	970 nM	1 nM	O=c1[nH]cc(-c2cccc(CO)c2)cc1-c1nc2cc(N3CCNCC3)ccc2[nH]1 [Compound A13, 5-(3-Hydroxymethyl-phenyl)-3-(5-piperazin-1-yl-1H-benzimidazol-2-yl)-1H-pyridin-2-one dihydrochloride]	400 nM
25 nM	3300 nM	27 nM	O=c1[nH]cc(-c2cccc(CO)c2)cc1-c1nc2cc(N3CCCNCC3)ccc2[nH]1 [Compound A17, 3-(5-[1,4]Diazepan-1-yl-1H-benzimidazol-2-yl)-5-(3-hydroxymethyl-phenyl)-1H-pyridin-2-one]	2500 nM
12 nM	1700 nM	13 nM	CN1CCN(c2ccc3[nH]c(-c4cc(-c5cccc(CO)c5)c[nH]c4=O)nc3c2)CC1 [Compound A27, 5-(3-Hydroxymethyl-phenyl)-3-[5-(4-methyl-piperazin-1-yl)-1H-benzimidazol-2-yl]-1H-pyridin-2-one]	450 nM
5 nM	170 nM	2 nM	CN1CCN(c2ccc3[nH]c(-c4cc(-c5ccnc6[nH]ccc56)c[nH]c4=O)nc3c2)CC1 [Compound A50, 3-[6-(4-Methyl-piperazin-1-yl)-1H-benzimidazol-2-yl]-5-(1H-pyrrolo-[2,3-b]pyridin-4-yl)-1H-pyridin-2-one]	400 nM
44 nM	130 nM	49 nM	Cc1cc2c(-c3c[nH]c(=O)c(-c4nc5cc(N6CCNCC6)ccc5[nH]4)c3)ccnc2[nH]1 [Compound A48a, 5-(2-Methyl-1H-pyrrolo[2,3-b]pyridin-4-yl)-3-(5-piperazin-1-yl-1H-benzimidazol-2-yl)-1H-pyridin-2-one]	2700 nM
63 nM	1700 nM	92 nM	CN1CCN(c2ccc3[nH]c(-c4cc(-c5ccnc6ccccc56)c[nH]c4=O)nc3c2)CC1 [Compound A29, 3-[5-(4-Methyl-piperazin-1-yl)-1H-benzimidazol-2-yl]-5-quinolin-4-yl-1H-pyridin-2-one]	3700 nM
7 nM	430 nM	10 nM	O=c1[nH]cc(-c2ccnc3[nH]ccc23)cc1-c1nc2cc(N3CCOCC3)ccc2[nH]1 [Compound A41, 3-(5-Morpholin-4-yl-1H-benzimidazol-2-yl)-5-(1H-pyrrolo[2,3-b]pyridin-4-yl)-1H-pyridin-2-one]	190 nM
